Our source for the Ki values is patent publication US9938272B2, “Hydrazine compound as blood coagulation factor Xa inhibitor” (NORTH CHINA PHARMACEUTICAL COMPANY., LTD., priority 2014, dated 2018).

Holding throughout (type): biochemical
For one test, the target named is human thrombin (Homo sapiens (Human), UniProt P00734). Put plainly: Human thrombin assay. The conditions noted are these: substrate S-2238.
Another test concerns the target human Factor Xa (Homo sapiens (Human), UniProt P00742). Put plainly: Human factor Xa chromogenic assay. The conditions noted are these: substrate S-2222, read-out: hfXa Ki.
For a further test, the target named is rat Factor Xa (Rattus norvegicus (Rat), UniProt Q63207). Put plainly: Rat factor Xa chromogenic assay. The following applies: substrate S-2222, read-out: rfXa Ki.
For another test, the target named is human trypsin (Homo sapiens, UniProt P07477). Put plainly: Human trypsin assay. The conditions noted are these: substrate S-2222.
A further test addresses prothrombinase (Homo sapiens (Human), UniProt P00742). Put plainly: Prothrombinase assay (thrombin generation). The following applies: human factor Xa with human platelets, prothrombin, substrate S-2238.

Chain of human Factor Xa (P00742 235-488): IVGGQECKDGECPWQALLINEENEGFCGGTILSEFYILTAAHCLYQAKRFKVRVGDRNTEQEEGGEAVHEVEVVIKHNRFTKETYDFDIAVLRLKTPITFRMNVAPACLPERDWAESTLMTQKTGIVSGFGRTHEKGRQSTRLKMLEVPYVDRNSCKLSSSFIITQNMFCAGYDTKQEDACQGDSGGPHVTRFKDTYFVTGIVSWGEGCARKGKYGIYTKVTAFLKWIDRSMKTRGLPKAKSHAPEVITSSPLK
Chain of human Factor Xa (P00742 41-179): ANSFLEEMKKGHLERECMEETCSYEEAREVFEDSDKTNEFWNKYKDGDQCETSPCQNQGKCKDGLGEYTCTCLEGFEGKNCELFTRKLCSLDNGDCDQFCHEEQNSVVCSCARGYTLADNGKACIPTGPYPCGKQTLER
Chain of prothrombinase (P00742 235-488): as the sequence (P00742 235-488) above
Chain of prothrombinase (P00742 41-179): as the sequence (P00742 41-179) above
Chain of prothrombinase (P12259 29-737 partner): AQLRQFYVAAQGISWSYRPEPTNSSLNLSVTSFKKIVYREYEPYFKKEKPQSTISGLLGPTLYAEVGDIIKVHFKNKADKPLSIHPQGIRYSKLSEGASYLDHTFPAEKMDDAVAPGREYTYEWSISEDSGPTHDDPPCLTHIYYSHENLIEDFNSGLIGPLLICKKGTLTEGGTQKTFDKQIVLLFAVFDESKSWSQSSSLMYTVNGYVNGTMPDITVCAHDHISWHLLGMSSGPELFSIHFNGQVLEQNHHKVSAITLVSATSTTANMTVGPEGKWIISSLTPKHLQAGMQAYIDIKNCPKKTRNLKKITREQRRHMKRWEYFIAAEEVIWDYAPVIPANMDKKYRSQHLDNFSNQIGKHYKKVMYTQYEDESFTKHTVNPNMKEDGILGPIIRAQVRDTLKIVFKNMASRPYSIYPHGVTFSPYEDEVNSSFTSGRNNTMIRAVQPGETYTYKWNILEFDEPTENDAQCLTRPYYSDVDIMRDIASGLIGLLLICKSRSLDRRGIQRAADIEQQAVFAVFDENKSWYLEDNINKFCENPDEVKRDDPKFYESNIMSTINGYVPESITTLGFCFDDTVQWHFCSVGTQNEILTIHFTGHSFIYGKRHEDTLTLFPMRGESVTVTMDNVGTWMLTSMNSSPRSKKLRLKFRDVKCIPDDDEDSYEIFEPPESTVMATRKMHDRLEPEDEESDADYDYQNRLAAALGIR
Chain of prothrombinase (P12259 1574-2224 partner): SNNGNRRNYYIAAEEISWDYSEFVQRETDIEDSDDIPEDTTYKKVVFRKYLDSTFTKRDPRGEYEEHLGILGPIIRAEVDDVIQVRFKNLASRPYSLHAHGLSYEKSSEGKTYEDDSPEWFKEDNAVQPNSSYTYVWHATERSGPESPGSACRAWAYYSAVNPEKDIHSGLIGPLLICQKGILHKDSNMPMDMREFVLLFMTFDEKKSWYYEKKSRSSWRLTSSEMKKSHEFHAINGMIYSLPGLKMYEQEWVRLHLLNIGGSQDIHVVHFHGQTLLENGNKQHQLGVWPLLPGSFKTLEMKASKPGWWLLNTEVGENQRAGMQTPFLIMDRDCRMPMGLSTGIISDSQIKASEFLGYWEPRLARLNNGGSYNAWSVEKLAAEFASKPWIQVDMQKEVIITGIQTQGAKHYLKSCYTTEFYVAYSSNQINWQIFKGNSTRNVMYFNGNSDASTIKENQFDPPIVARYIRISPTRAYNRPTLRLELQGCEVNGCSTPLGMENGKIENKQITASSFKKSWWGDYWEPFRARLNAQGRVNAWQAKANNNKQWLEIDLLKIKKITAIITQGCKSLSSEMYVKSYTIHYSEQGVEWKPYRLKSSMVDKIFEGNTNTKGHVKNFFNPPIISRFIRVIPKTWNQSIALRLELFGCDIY
Chain of rat Factor Xa (Q63207 232-482): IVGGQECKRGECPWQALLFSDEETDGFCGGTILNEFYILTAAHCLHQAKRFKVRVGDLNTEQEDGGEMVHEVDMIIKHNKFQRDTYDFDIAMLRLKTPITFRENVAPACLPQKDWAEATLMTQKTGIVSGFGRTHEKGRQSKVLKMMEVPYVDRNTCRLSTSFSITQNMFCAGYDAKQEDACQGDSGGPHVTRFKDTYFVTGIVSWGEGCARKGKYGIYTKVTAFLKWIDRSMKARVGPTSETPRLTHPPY
Chain of rat Factor Xa (Q63207 41-180): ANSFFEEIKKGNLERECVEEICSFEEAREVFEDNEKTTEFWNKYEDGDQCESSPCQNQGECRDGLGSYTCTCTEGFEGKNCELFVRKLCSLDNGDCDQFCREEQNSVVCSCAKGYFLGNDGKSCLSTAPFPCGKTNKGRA

Take `NC(=O)c1nn(-c2ccc(OC(F)(F)F)cc2)c2c1CCN(C1CCN(N3CCOCC3=O)CC1)C2=O` [Example 10, 7-Oxo-6-(1-(3-oxomorpholino)piperidin-4-yl)-1-(4-(trifluoromethoxy)phenyl)-4,5,6,7-tetr a hydro-1H-pyrazolo[3,4-c]pyridine-3-carboxamide]: the Ki (usually the dissociation constant of the complex between target and ligand, obtained from inhibition or displacement) was ≥ 1000 nM on human thrombin; ≤ 10 nM at human Factor Xa; 50 to 1000 nM at rat Factor Xa; ≥ 1000 nM on human trypsin; 50 to 1000 nM on prothrombinase.
`Nc1noc2ccc(-n3nc(C(F)(F)F)c4c3C(=O)N(C3CCN(N5CCOCC5=O)CC3)CC4)cc12` [Example 26, 4-(4-(1-(3-Aminobenzo[d]isoxazol-5-yl)-7-oxo-3-(trifluoromethyl)-4,5-dihydro-1H-pyrazolo[3,4-c]pyridin-6(7H)-yl)piperidin-1-yl)morpholin-3-one]: the inhibition constant (Ki) at human thrombin was ≥ 1000 nM; on human Factor Xa it was ≤ 10 nM; on rat Factor Xa, ≤ 10 nM; at human trypsin, ≥ 1000 nM; on prothrombinase, ≤ 10 nM.
Take `COc1ccc(-n2nc(C(N)=O)cc2C(=O)NC2CCN(N3CCOCC3=O)CC2)cc1` [Example 15, 1-(4-Methoxyphenyl)-N^5-(1-(3-oxomorpholino)piperidin-4-yl)-1H-pyrazole-3,5-dicarboxamide]: the inhibition constant Ki on human Factor Xa and on prothrombinase was 10 to 50 nM throughout.
On to `N#Cc1cccc(-n2nc(C(F)(F)F)c3c2C(=O)N(C2CCN(N4CCOCC4=O)CC2)CC3)c1` [Example 27, 3-(7-Oxo-6-(1-(3-oxomorpholino)piperidin-4-yl)-3-(trifluoromethyl)-4,5,6,7-tetrahydro-1H-pyrazolo[3,4-c]pyridin-1-yl)benzonitrile], for which the inhibition constant Ki on human Factor Xa was in the range of 10 to 50 nM.
Still for that read-out and setting: next, `N#Cc1cc(-n2nc(C(F)(F)F)c3c2C(=O)N(C2CCN(N4CCOCC4=O)CC2)CC3)ccc1F` [Example 25, 2-Fluoro-5-(7-oxo-6-(1-(3-oxomorpholino)piperidin-4-yl)-3-(trifluoromethyl)-4,5,6,7-tetra hydro-1H-pyrazolo[3,4-c]pyridin-1-yl)benzonitrile]: 50 to 1000 nM.
Same read-out and setting: next, `COc1ccc(-n2nc(C(N)=O)c3c2C(=O)N(C2C4CN(N5CCOCC5=O)CC42)CC3)cc1` (centres unmarked) [Example 13, 1-(4-Methoxyphenyl)-7-oxo-6-(3-(3-oxomorpholino)-3-azabicyclo[3.1.0]hexan-6-yl)-4,5,6,7-tetrahydro-1H-pyrazolo[3,4-c]pyridine-3-carboxamide]: 10 to 50 nM.
Take `COc1ccc(-n2nc(C#N)c3c2C(=O)N(C2CCN(N4CCCCC4=O)CC2)CC3)cc1` [Example 5, 1-(4-Methoxyphenyl)-7-oxo-6-(2′-oxo-[1,1′-bipiperidin]-4-yl)-4,5,6,7-tetrahydro-1H-pyrazolo[3,4-c]pyridine-3-carbonitrile]: the Ki was ≥ 1000 nM at human thrombin; 10 to 50 nM on human Factor Xa; 10 to 50 nM on rat Factor Xa; ≥ 1000 nM on human trypsin; ≤ 10 nM on prothrombinase.
In the case of `COc1ccc(-n2nc(C(F)(F)F)c3c2C(=O)N(C2CCN(N4CCOCC4=O)CC2)CC3)cc1F` [Example 28, 4-(4-(1-(3-Fluoro-4-methoxyphenyl)-7-oxo-3-(trifluoromethyl)-4,5-dihydro-1H-pyrazolo[3,4-c]pyridin-6(7H)-yl)piperidin-1-yl)morpholin-3-one], the Ki at human thrombin is ≥ 1000 nM; at human Factor Xa it was ≤ 10 nM; at rat Factor Xa it was ≤ 10 nM; at human trypsin, ≥ 1000 nM; at prothrombinase, ≤ 10 nM.
For `COc1ccc(-n2nc(C(N)=O)c3c2C(=O)N(C2CCN(C4CCNC4=O)CC2)CC3)cc1` (single isomer, unassigned) [Example 8a, 1-(4-Methoxyphenyl)-7-oxo-6-(1-(2-oxopyrrolidin-3-yl)piperidin-4-yl)-4,5,6,7-tetrahydro-1H-pyrazolo[3,4-c]pyridine-3-carboxamide], the results for the inhibition constant Ki on human Factor Xa and on rat Factor Xa were 50 to 1000 nM and 10 to 50 nM, respectively.
In the case of `NC(=O)c1cc(-n2nc(C(F)(F)F)c3c2C(=O)N(C2CCN(N4CCOCC4=O)CC2)CC3)ccc1F` [Example 32, 2-Fluoro-5-(7-oxo-6-(1-(3-oxomorpholino)piperidin-4-yl)-3-(trifluoromethyl)-4,5,6,7-tetra hydro-1H-pyrazolo[3,4-c]pyridin-1-yl)benzamide], on human Factor Xa, the Ki was 50 to 1000 nM.
Same read-out and setting: next, `NC(=O)c1cc(C(=O)NC2CCN(N3CCOCC3=O)CC2)n(C2CCOCC2)n1` [Example 20, N^5-(1-(3-Oxomorpholino)piperidin-4-yl)-1-(tetrahydro-2H-pyran-4-yl)-1H-pyrazole-3,5-dicarboxamide]: 10 to 50 nM.
Same read-out and setting: next, `N#Cc1cc(-n2nc(C(F)(F)F)c3c2C(=O)N(C2CCN(N4CCOCC4=O)CC2)CC3)ccc1OC(F)F` [Example 30, 2-(Difluoromethoxy)-5-(7-oxo-6-(1-(3-oxomorpholino)piperidin-4-yl)-3-(trifluoromethyl)-4,5,6,7-tetrahydro-1H-pyrazolo[3,4-c]pyridin-1-yl)benzonitrile]: 50 to 1000 nM; `COc1ccc(-n2nc(C(N)=O)cc2C(=O)N(C2CC2)C2CCN(N3CCOCC3=O)CC2)cc1` [Example 18, N^5-Cyclopropyl-1-(4-methoxyphenyl)-N^5-(1-(3-oxomorpholino)piperidin-4-yl)-1H-pyrazole-3,5-dicarboxamide]: 50 to 1000 nM.
For the compound `O=C1c2c(c(C(F)(F)F)nn2-c2cc3ccccc3cc2F)CCN1C1CCN(N2CCOCC2=O)CC1` [Example 29, 4-(4-(1-(3-Fluoronaphthalen-2-yl)-7-oxo-3-(trifluoromethyl)-4,5-dihydro-1H-pyrazolo[3,4-c]pyridin-6(7H)-yl)piperidin-1-yl)morpholin-3-one], the inhibitory constant (Ki) at human thrombin was ≥ 1000 nM; at human Factor Xa, ≤ 10 nM; on rat Factor Xa, ≤ 10 nM; on human trypsin, ≥ 1000 nM; at prothrombinase it was ≤ 10 nM.
`COc1ccc(-n2nc(C(F)(F)F)c3c2C(=O)N(C2CCN(N4CCOCC4=O)CC2)CC3)cc1` [Example 1, 4-(4-(1-(4-Methoxyphenyl)-7-oxo-3-(trifluoromethyl)-4,5-dihydro-1H-pyrazolo[3,4-c]pyridin-6(7H)-yl)piperidin-1-yl)morpholin-3-one]: the Ki is ≥ 1000 nM on human thrombin; ≤ 10 nM on human Factor Xa; ≤ 10 nM at rat Factor Xa; ≥ 1000 nM on human trypsin; ≤ 10 nM on prothrombinase.
Take `CCN(C(=O)c1cc(C(N)=O)nn1-c1ccc(OC)cc1)C1CCN(N2CCOCC2=O)CC1` [Example 17, N^5-Ethyl-1-(4-methoxyphenyl)-N^5-(1-(3-oxomorpholino)piperidin-4-yl)-1H-pyrazole-3,5-dicarboxamide]: at human Factor Xa, the Ki was 50 to 1000 nM.
Still for that read-out and setting: as for `NC(=O)c1nn(-c2ccc(Cl)cc2)c2c1CCN(C1CCN(N3CCOCC3=O)CC1)C2=O` [Example 9, 1-(4-Chlorophenyl)-7-oxo-6-(1-(3-oxomorpholino)piperidin-4-yl)-4,5,6,7-tetrahydro-1H-pyrazolo[3,4-c]pyridine-3-carboxamide], the figure is 10 to 50 nM.
With `O=C1c2c(c(C(F)(F)F)nn2-c2ccc3cc(Cl)ccc3c2)CCN1C1CCN(N2CCOCC2=O)CC1` [Example 24, 4-(4-(1-(6-Chloronaphthalen-2-yl)-7-oxo-3-(trifluoromethyl)-4,5-dihydro-1H-pyrazolo[3,4-c]pyridin-6(7H)-yl)piperidin-1-yl)morpholin-3-one], the inhibition constant (Ki) was ≥ 1000 nM on human thrombin; ≤ 10 nM on human Factor Xa; ≤ 10 nM at rat Factor Xa; ≥ 1000 nM on human trypsin; ≤ 10 nM at prothrombinase.
As for `COC1CCC(n2nc(C(N)=O)cc2C(=O)NC2CCN(N3CCOCC3=O)CC2)CC1` (centres unmarked) [Example 22, 1-(4-Methoxycyclohexyl)-N^5-(1-(3-oxomorpholino)piperidin-4-yl)-1H-pyrazole-3,5-dicarboxamide], the inhibition constant (Ki) on human Factor Xa fell in the range of 50 to 1000 nM.
For the compound `COc1ccc(-n2nc(C(N)=O)c3c2C(=O)N(N2CCC(N4CCCCC4=O)CC2)CC3)cc1` [Example 14, 1-(4-Methoxyphenyl)-7-oxo-6-(2-oxo-[1,4′-bipiperidin]-1′-yl)-4,5,6,7-tetrahydro-1H-pyrazolo[3,4-c]pyridine-3-carboxamide], the inhibition constant (Ki) on human thrombin was ≥ 1000 nM; at human Factor Xa, ≤ 10 nM; at rat Factor Xa it was 50 to 1000 nM; at human trypsin, ≥ 1000 nM; on prothrombinase, ≤ 10 nM.
As for `NC(=O)c1cc(-n2nc(C(F)(F)F)c3c2C(=O)N(C2CCN(N4CCOCC4=O)CC2)CC3)ccc1OC(F)F` [Example 33, 2-(Difluoromethoxy)-5-(7-oxo-6-(1-(3-oxomorpholino)piperidin-4-yl)-3-(trifluoromethyl)-4,5,6,7-tetrahydro-1H-pyrazolo[3,4-c]pyridin-1-yl)benzamide], the Ki on human Factor Xa was 50 to 1000 nM.
On the same count and under the same terms, next, `COc1ccc(-n2nc(C(N)=O)c3c2C(=O)N(C2C4CN(N5CCCCC5=O)CC42)CC3)cc1` (centres unmarked) [Example 12, 1-(4-Methoxyphenyl)-7-oxo-6-(3-(2-oxopiperidin-1-yl)-3-azabicyclo[3.1.0]hexan-6-yl)-4,5,6,7-tetrahydro-1H-pyrazolo[3,4-c]pyridine-3-carboxamide]: 10 to 50 nM; `COc1ccc(-n2nc(C(N)=O)cc2C(=O)NC2CCN(N3CCOCC3=O)C2)cc1` (centres unmarked) [Example 19, 1-(4-Methoxyphenyl)-N^5-(1-(3-oxomorpholino)pyrrolidin-3-yl)-1H-pyrazole-3,5-dicarboxamide]: 50 to 1000 nM; `CS(=O)(=O)N1CCC(n2nc(C(N)=O)cc2C(=O)NC2CCN(N3CCOCC3=O)CC2)CC1` [Example 21, 1-(1-(Methylsulfonyl)piperidin-4-yl)-N^5-(1-(3-oxomorpholino)piperidin-4-yl)-1H-pyrazole-3,5-dicarboxamide]: 50 to 1000 nM.
Consider `COc1ccc(-n2nc(C(N)=O)cc2C(=O)N(C)C2CCN(N3CCOCC3=O)CC2)cc1` [Example 16, 1-(4-Methoxyphenyl)-N^5-methyl-N^5-(1-(3-oxomorpholino)piperidin-4-yl)-1H-pyrazole-3,5-dicarboxamide], for which, at human Factor Xa, the Ki lay in the range of 50 to 1000 nM.
